Laboratory results: ChEMBL document CHEMBL6087424, “Opportunities and Challenges of Arginase Inhibitors in Cancer: A Medicinal Chemistry Perspective” (J Med Chem, 2024)
One block for each molecule: values may come before it.

How the values were obtained:
[1] = biological target: T1, Arginase-2, mitochondrial (Homo sapiens, UniProt P78540); experiment: Inhibition of ARG2 (unknown origin)
T1 sequence (P78540 whole entry): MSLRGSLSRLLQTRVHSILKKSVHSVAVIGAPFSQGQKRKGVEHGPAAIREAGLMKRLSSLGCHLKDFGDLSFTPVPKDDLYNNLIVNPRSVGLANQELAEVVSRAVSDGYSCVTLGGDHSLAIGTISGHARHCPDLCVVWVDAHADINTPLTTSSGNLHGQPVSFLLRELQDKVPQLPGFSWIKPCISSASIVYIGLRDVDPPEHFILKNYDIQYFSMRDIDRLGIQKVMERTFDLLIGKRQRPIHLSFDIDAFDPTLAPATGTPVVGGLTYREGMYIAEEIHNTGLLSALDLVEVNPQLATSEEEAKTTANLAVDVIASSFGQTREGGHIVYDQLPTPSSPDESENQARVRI

[2] = biological target: T2, Arginase-1 (Homo sapiens, UniProt P05089); experiment: Inhibition of ARG1 (unknown origin)
T2 sequence (P05089 whole entry): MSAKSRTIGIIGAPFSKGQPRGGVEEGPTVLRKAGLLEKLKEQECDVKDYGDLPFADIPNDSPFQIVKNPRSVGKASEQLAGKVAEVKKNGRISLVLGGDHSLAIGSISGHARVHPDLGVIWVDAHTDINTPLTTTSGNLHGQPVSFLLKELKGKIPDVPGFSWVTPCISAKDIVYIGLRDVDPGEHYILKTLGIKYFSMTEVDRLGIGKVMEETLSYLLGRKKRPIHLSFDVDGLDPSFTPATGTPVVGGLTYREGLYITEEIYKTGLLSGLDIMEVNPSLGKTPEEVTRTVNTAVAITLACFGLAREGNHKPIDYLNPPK

[3] = biological target: T1, Arginase-2, mitochondrial; experiment: Inhibition of human recombinant ARG2
[4] = biological target: T2, Arginase-1; experiment: Binding affinity to human recombinant ARG1 assessed as inhibition constant
[5] = biological target: T1, Arginase-2, mitochondrial; experiment: Inhibition of human recombinant ARG2 extracted from Escherichia coli
[6] = biological target: T2, Arginase-1; experiment: Inhibition of N-terminal hexa-histidine full-length human ARG1 extracted from Escherichia coli BL21 (DE3) Rosetta competent cells

Structure (SMILES): N[C@@H](CC/C=C/B(O)O)C(=O)O
IC50 [3]: 15000 nM

Structure (SMILES): CN(C)C[C@@H]1CC[C@@H](CCB(O)O)C[C@]1(N)C(=O)O
IC50 [5]: 39 nM

Structure (SMILES): N[C@@](CCCCB(O)O)(C(=O)O)C1CC(NCCCc2ccccc2)C1 (stereo partly drawn)
IC50 [1]: 26 nM

Structure (SMILES): CC(C)(C)[C@H](N)C(=O)N[C@H]1CN[C@H](C(=O)O)[C@@H]1CCCB(O)O
IC50 [6]: < 1 nM

More lines, now with the values ahead:

IC50 [1]: 23 nM
IC50 [2]: 14.7 nM
Structure (SMILES): O=C(O)[C@@]1(CCCCB(O)O)CCCN1

Ki [4]: 60000 nM
Structure (SMILES): N[C@@H](CCCCC=O)C(=O)O

IC50 [2]: 6.9 nM
Structure (SMILES): CN[C@@H]1C[C@@H]2C[C@@](N)(C(=O)O)[C@@H](CCCB(O)O)[C@@H]2[C@H]1F
